Tests used:
[1] = test system: luciferase reporter gene (fos-Luc) in CHO cells; assay: ABA-induced luciferase expression using integrated CRISPR/CIP (PYL-VP80 / dCas9-NLS-ABI, fos-Luc reporter, sgRNAs); type: cell-based; settings: CHO cells transfected for 24 hours; ABA 100 μM for 16 hours
Description: In one exemplary embodiment, ABA-induced ABI-PYL dimerization recruited a transcriptional activator to a DNA sequence targeted by sgRNAs and dCas9, and turn on the expression of a reporter gene. Several DNA plasmids were constructed for this purpose, including: (i) a DNA plasmid (PYL-VP80-ires-dCas9-NLS-ABI) encoding the transcriptional activator VP80 fused to PYL (PYL-VP80) and dCas9 with a nuclear localization signal (NLS) fused to ABI (dCas9-NLS-ABI); (ii) a luciferase reporter gene (fos-Luc) that contains the fos minimal promoter to give minimal background expression; and (iii) several sgRNA expression constructs to target the upstream region (within 1.5 kb) of the luciferase gene. […] Also, specific combinations of multiple sgRNAs increased the induced expression level. In other applications, the fold induction can be improved by optimizing the targeting region of sgRNAs, the combination of different sgRNAs, and/or the framework of fusion proteins, which may lead to a better positioning of the recruited transcription machinery relative to the transcription start site. […] Since histone posttranslational modifications are generally present in an expanded region instead of a specific location (e.g., a transcription start site), the precise positioning may not be as critical for epigenome editing.

[2] = test system: HBA locus in HEK293T cells; assay: ChIP-qPCR of FLAG-ABI-P300 and H3K27Ac at the HBA locus; type: cell-based, human; settings: HBA sgRNAs; ABA treatment for 48 hours
Procedure: To determine if the new method can be used to modify H3K27Ac at other gene loci, sgRNAs were designed that target the promoter region of other genes with low expression levels in HEK293T cells, including GRM2, HBA and MYOD1 (Table 1).
Human embryonic kidney cell HEK293T (American Type Culture Collection, Manassas, Va.) was cultured in Dulbecco's modified Eagle's medium (DMEM) (Gibco) with 10% FBS (Atlanta Biologicals), 1× GlutaMax (Gibco, Thermo Fisher Scientific, Inc., Waltham, Mass.), and 1× penicillin/streptomycin (Pen/Strep; Gibco, Thermo Fisher Scientific, Inc., Waltham, Mass.). Cells (100,000/ml) were plated in 24-well or 10-cm cell culture plate the day before transfection. For each well of 24-well plate transfection, 500 ng of dCas9-PYL-HA, 420 ng of FLAG-ABI-P300, and a total amount of 200-ng mix of gRNAs, with a 50-ng per each gRNA, were mixed with 50×(v/w) Opti-MEM (Gibco, Thermo Fisher Scientific, Inc., Waltham, Mass.), then incubate with the same volume of 3 μg PEI-Opti-MEM solution for 20 minutes at room temperature. Then, 100 μL of PEI-combined plasmids were added to every single well of 24-well plate and cultured for 24 hours before experiments were performed. For a 10 cm plate, 1 mL of PEI-combined plasmids were needed. After six hours transfection, cells were washed and incubated for another 1-72 hours before experiments were performed. […]

[3] = test system: GAL4DBD-ABI/VP16AD-PYL, inducible luciferase reporter in HEK293T cells; assay: Inducible luciferase reporter assay, ABA-responsive system (orthogonality); type: cell-based, human; settings: treated with IAA or ABA or DMSO for 24 hours
Procedure: To ensure that IAA and ABA could be used to independently control two histone modification editing events, the orthogonality between these two systems was tested. HEK293T cells were co-transfected with either GAL4DBD-TIR1*/VP16AD-AID (responsive to IAA) or GAL4DBD-ABI/VP16AD-PYL (responsive to ABA), and an inducible luciferase reporter construct. This was followed by treating cells with either IAA or ABA (or DMSO as a control) for 24 hours. […] To test the reversibility of IAA-induced dimerization, in which it was critical to achieve precise temporal control, HEK293T cells were co-transfected with GAL4DBD-TIR1*, VP16AD-AID, and an inducible luciferase expression construct, and then treated cells with 50 μM IAA for 24 hours. Cells were then washed with fresh media without IAA to remove the inducer (or no washing as a control). They were then harvested for luciferase assays after washing.

SMILES: CC1=CC(=O)CC(C)(C)[C@@]1(O)/C=C/C(C)=C\C(=O)O [ABA, abscisic acid]
- luciferase expression [1]: luciferase expression was induced
- enrichment of FLAG-ABI-P300 at the HBA locus [2]: causes the enrichment
- enrichment of H3K27Ac at the HBA locus [2]: causes the enrichment
- luciferase expression, ABA-responsive system [3]: Only the proper combination of inducer with corresponding binding proteins could induce luciferase expression

Source: patent publication US20190256827A1, “EPIGENOME EDITING SYSTEMS AND METHODS” (STC.UNM, priority 2017, published 2019)
